Data on 15 compounds can be found in US20240239794A1, “PKC-Theta Modulators” (Exscientia AI Limited, priority 2021, published 2024).

The target in test [1] is Recombinant human PKC-theta (His-tagged 362-706) (Homo sapiens (Human), UniProt Q04759). The test is described as follows: PKC-theta inhibition assay (HTRF KinEASE kit). It counts as biochemical. The following applies: ATP 6.5 μM. Here is the method: (§1) PKC-theta and PKC-delta biochemical activities were measured using the PKC-theta HTRF KinEASEkit kit, according to manufacturer's instructions (Cisbio, catalogue number 61ST1PEJ). Briefly, the kinase buffer component of the kit was supplemented with 10 mM MgCl2, 1 mM DTT and 0.1% Tween 20. For the PKC-theta assay, STK substrate and ATP were added to provide a final assay concentration of 525 nM and 6.5 μM, respectively. For the PKC-delta assay, STK substrate and ATP were added to provide a final assay concentration of 243 nM and 5.7 μM, respectively. The streptavidin_XL665 and STK antibody-cryptate detection reagents were mixed according to the manufacturer's instructions. Test compounds were diluted in DMSO in a series of 10 semi-log step doses; 10 nL of each compound dose were dispensed in 384 well plates. Recombinant human PKC-theta (His-tagged 362-706) or PKC-delta (His-tagged 345-676) was diluted into kinase buffer to provide a final assay concentration of 10 ng/ml and added to the test compound for 30 minutes on ice. The reaction was started by addition of the substrate and ATP and incubated at 25° C. for 30 minutes or 20 minutes for the PKC-theta and PKC-delta assays, respectively. The detection reagents were added, and the plate was incubated in the dark for 2 hours. Fluorescence was measured on an Envision 2103 plate reader with optical setup for […] in the HTRF mode. The ratio of acceptor and donor emission signals was calculated for each well. Percent inhibition values were calculated from the HTRF ratios at different doses and fitted to a 4-parameter logistic curve to determine IC50 values (see Table 1).
For orientation: TR-FRET usually uses a lanthanide donor and a delayed reading to cut background.

Test [2] concerns IL-2 secretion by human effector memory T cells (TEM). The experiment in a line: Effector memory T cells IL-2 release assay. The conditions noted are these: T-cell, human CD4+ TEM cells, CD3/CD28 bead stimulation, 24 h. It counts as cell-based. Here is the method:
Test compound-mediated inhibition of NFκB signalling in T cells was assessed by quantification of the IL-2 secretion by human effector memory T cells (TEM) upon treatment and stimulation. Human TEM cells were isolated from buffy coats of healthy donors obtained from the French blood bank. First, peripheral blood mononuclear cells (PBMC) were purified from buffy coats diluted 1:1 with DPBS (Gibco, cat #14190-094) by Pancoll (PAN BIOTECH, cat #P04-60500) density gradient centrifugation at 400×g for 20 minutes. TEM cells were further enriched by negative immuno-magnetic cell sorting using a human CD4+ Effector Memory T Cell Isolation Kit (Miltenyi, cat #130-094-125) according to the manufacturer's instructions. Aliquots of 3×10E6 purified TEM cells were kept frozen in Cryo-SFM medium (PromoCell, cat #C-29912) in gas phase nitrogen until used. Cell purity was verified by flow cytometry analysis of 200 000 PFA-fixed cells previously labelled with monoclonal antibodies anti-CD4-PerCP-Cy5.5 (BD Pharmigen, cat #332772), anti-CD8-V500 (BD Biosciences, cat #561617), anti-CD14-Pacific Blue (Biolegend, cat #325616), anti-CD45 RA-FITC (Biolegend, cat #304106) and anti-CCR7-APC (in CD4+ Effector Memory T Cell Isolation Kit, Miltenyi, cat #130-094-125).
TEM cells were resuspended in complete RPMI medium composed of: RPMI 1640 (Gibco, cat #31870-025), 10% heat inactivated fetal bovine serum (Sigma, cat #F7524), 2 mM GlutaMAX (Gibco, cat #35050-038), 1 mM sodium pyruvate 100× (Gibco, cat #11360-039), 1% MEM non-essential amino acids solution (Gibco, cat #11140-035) and 100 U/mL penicillin, 100 µg/mL streptomycin (Sigma-Aldrich, cat #11074440001). 5,000 cells per well were plated onto flat clear bottom 384 well plates (Corning, cat #3770). 5,000 Dynabeads Human T-Activator CD3/CD28 (Gibco, cat #11132D) were added to each well for cell stimulation. Finally, 10 doses of test compound, originally prepared in DMSO by serial semi-log step dilution, were also added to cells in triplicate wells. Final DMSO concentration in wells was 0.1% in a total volume of 100 µL complete medium. Plates were incubated for 24 h at 37° C. in 5% CO2 atmosphere. After incubation, cell suspensions were centrifuged at 400×g and culture supernatants were recovered and stored at −80° C. Cell viability was assessed by flow cytometry after staining the cells with Fixable Viability Dye eFluor 780 (Invitrogen, cat #65-0865-14). IL-2 levels were determined in cell supernatants using an HTRF human IL-2 detection kit (Cisbio, cat #62HIL02PEH). IL-2 data at the different compound doses were fitted to a 4-parameter logistic curve to determine IC50 values, corresponding to the compound concentration leading to 50% reduction of the maximal IL-2 levels observed in each experiment. Viability data were analysed similarly to exclude cytotoxicity as a cause of IL-2 decrease (see Table 1).

For test [3], the target named is Recombinant human PKC-delta (His-tagged 345-676) (Homo sapiens (Human), UniProt Q05655). The test is described as follows: PKC-delta inhibition assay (HTRF KinEASE kit), PKC-theta/PKC-delta selectivity. The following applies: ratio; for PKC-theta/PKC-delta selectivity: PKC-theta over PKC-delta, HTRF assays; for PKC-theta/PKC-delta selectivity (binned): binned A to G. In kind it is biochemical. Here is the method: as §1

Setting [4] is: binned A to H, read-out: PKC-theta HTRF pIC50 (binned) (converted).
Where [5] appears, read: binned A to G, read-out: PKC-theta IL2 pIC50 (binned) (converted).
Setting [6] is: read-out: PKC-theta IL2 pIC50 (converted).
The mark [7] stands for this setting: read-out: PKC-theta HTRF pIC50 (converted).

Each structure is given as a SMILES string. Read-outs that look alike come from different tables or passages of the source. A value given as a limit tells only on which side of the number the result lay.

Recombinant human PKC-theta (His-tagged 362-706), sequence (Q04759 362-706): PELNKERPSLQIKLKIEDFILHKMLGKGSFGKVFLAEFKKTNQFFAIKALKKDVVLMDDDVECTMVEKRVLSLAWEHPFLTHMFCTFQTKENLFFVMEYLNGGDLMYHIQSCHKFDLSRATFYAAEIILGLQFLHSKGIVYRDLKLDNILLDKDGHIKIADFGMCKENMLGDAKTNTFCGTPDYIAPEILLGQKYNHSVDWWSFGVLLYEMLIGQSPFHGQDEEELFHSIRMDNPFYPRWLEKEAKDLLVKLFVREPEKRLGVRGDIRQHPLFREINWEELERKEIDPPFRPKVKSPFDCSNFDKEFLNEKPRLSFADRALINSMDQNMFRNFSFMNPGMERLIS
Recombinant human PKC-delta (His-tagged 345-676), sequence (Q05655 345-676): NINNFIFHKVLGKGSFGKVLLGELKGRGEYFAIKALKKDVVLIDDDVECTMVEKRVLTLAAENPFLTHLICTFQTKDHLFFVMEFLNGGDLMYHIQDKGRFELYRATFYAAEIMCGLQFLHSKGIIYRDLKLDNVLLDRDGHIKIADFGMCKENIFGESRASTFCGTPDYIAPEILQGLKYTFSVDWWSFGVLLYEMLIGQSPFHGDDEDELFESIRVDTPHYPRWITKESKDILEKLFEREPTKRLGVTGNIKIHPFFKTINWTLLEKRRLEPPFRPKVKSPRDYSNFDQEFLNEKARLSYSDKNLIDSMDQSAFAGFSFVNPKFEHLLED

As to `CC1(C)C(=O)Nc2nccc(-c3nn([C@H]4CCNC[C@@H]4F)c4ccccc34)c21` (racemic) [Example 36], the “PKC-theta HTRF pIC50” value in test [1] is 8.3. Moreover, the IC50 in test [1] (setting [4]) was 3.16 to 10 nM; in test [2] (setting [5]) it was 100 to 316 nM; in test [2] (setting [6]), 126 nM. The PKC-theta/PKC-delta selectivity in test [3] worked out at 14. Further, the “PKC-theta/PKC-delta selectivity (binned)” value in test [3] is “D (D means a ratio of between 10 and 20)”.

With `C[C@@]1(O)C(=O)Nc2nccc(-c3nn(C4CCNCC4)c4ccccc34)c21` (single isomer, unassigned) [Example 27], the IC50 was 31.6 to 100 nM in test [1] (setting [4]), 50.1 nM in test [1] (setting [7]), more than 1000 nM in test [2] (setting [5]) and 1580 nM in test [2] (setting [6]). The PKC-theta/PKC-delta selectivity in test [3] amounted to 5. In addition, the “PKC-theta/PKC-delta selectivity (binned)” value in test [3] was “E (E means a ratio of between 5 and 10)”.

As to `C[C@]1(O)C(=O)Nc2nccc(-c3nn(C4CCNCC4)c4ccccc34)c21` (single isomer, unassigned) [Example 28], the IC50 in test [1] (setting [4]) is 1 to 3.16 nM; in test [1] (setting [7]), 2 nM; in test [2] (setting [5]) it was 10 to 31.6 nM; in test [2] (setting [6]), 31.6 nM. In test [3], the PKC-theta/PKC-delta selectivity was found to be 15. For the same compound, in test [3], the “PKC-theta/PKC-delta selectivity (binned)” value was “D (D means a ratio of between 10 and 20)”.

For the compound `C[C@@]1(O)C(=O)Nc2nccc(-c3nn(CC4CCNCC4)c4ccccc34)c21` (single isomer, unassigned) [Example 29], the IC50 in test [1] (setting [4]) is not above 1 nM; in test [1] (setting [7]) it was 0.398 nM; in test [2] (setting [5]), 31.6 to 100 nM; in test [2] (setting [6]) it was 39.8 nM. The PKC-theta/PKC-delta selectivity in test [3] was 24. Further, the “PKC-theta/PKC-delta selectivity (binned)” value in test [3] is “C (C means a ratio of between 20 and 30)”.

For the compound `CC1(C)C(=O)Nc2nccc(-c3nn(C[C@@]4(C)COCCN4)c4ccccc34)c21` (single isomer, unassigned) [Example 31], the “PKC-theta HTRF pIC50” value in test [1] is on record as 8.9. Further, the IC50 in test [1] (setting [4]) was 1 to 3.16 nM; in test [2] (setting [5]), 31.6 to 100 nM; in test [2] (setting [6]) it was 39.8 nM. Also, in test [3], the PKC-theta/PKC-delta selectivity is reported as 22. The “PKC-theta/PKC-delta selectivity (binned)” value in test [3] is “C (C means a ratio of between 20 and 30)”.

For `C[C@@]1(O)C(=O)Nc2nccc(-c3nn(C4(CC#N)CCC4)c4ccccc34)c21` (single isomer, unassigned) [Example 40], the IC50 is not above 1 nM in test [1] (setting [4]), 0.2 nM in test [1] (setting [7]), 10 to 31.6 nM in test [2] (setting [5]) and 15.8 nM in test [2] (setting [6]). Moreover, the PKC-theta/PKC-delta selectivity in test [3] is on record as 17. Besides, in test [3], the “PKC-theta/PKC-delta selectivity (binned)” value was “D (D means a ratio of between 10 and 20)”.

As for `C[C@@]1(O)C(=O)Nc2nccc(-c3nn(C4CCNCC4)c4cc(C(F)(F)F)ccc34)c21` (single isomer, unassigned) [Example 42], the IC50 in test [1] (setting [4]) was 10 to 31.6 nM; in test [1] (setting [7]), 25.1 nM; in test [2] (setting [5]), 316 to 1000 nM; in test [2] (setting [6]), 398 nM.

Consider `C[C@@]1(O)C(=O)Nc2nccc(-c3nn(C4CCNCC4)c4c(OC(F)F)cccc34)c21` (single isomer, unassigned) [Example 43], for which the IC50 in test [1] (setting [4]) is 3.16 to 10 nM; in test [1] (setting [7]) it was 7.94 nM; in test [2] (setting [5]), 316 to 1000 nM; in test [2] (setting [6]), 316 nM. In addition, the PKC-theta/PKC-delta selectivity in test [3] is 11. Besides, the “PKC-theta/PKC-delta selectivity (binned)” value in test [3] is “D (D means a ratio of between 10 and 20)”.

Consider `C[C@@]1(O)C(=O)Nc2nccc(-c3nn(CC4(F)CCNCC4)c4ccccc34)c21` (single isomer, unassigned) [Example 47], for which the IC50 is not above 1 nM in test [1] (setting [4]), 0.631 nM in test [1] (setting [7]), 10 to 31.6 nM in test [2] (setting [5]) and 25.1 nM in test [2] (setting [6]). Moreover, the PKC-theta/PKC-delta selectivity in test [3] is 12. Further, in test [3], the “PKC-theta/PKC-delta selectivity (binned)” value was “D (D means a ratio of between 10 and 20)”.

In the case of `C[C@@]1(O)C(=O)Nc2nccc(-c3nn(C4(CC#N)COC4)c4ccccc34)c21` (single isomer, unassigned) [Example 48], the IC50 in test [1] (setting [4]) was 100 to 316 nM; in test [1] (setting [7]), 316 nM; in test [2] (setting [5]) it was 316 to 1000 nM; in test [2] (setting [6]) it was 794 nM. Moreover, the PKC-theta/PKC-delta selectivity in test [3] worked out at 33. Besides, in test [3], the “PKC-theta/PKC-delta selectivity (binned)” value was “B (B means a ratio of between 30 and 50)”.

Consider `C[C@@]1(O)C(=O)Nc2nccc(-c3nn(C4(CC#N)CNC4)c4ccccc34)c21` (single isomer, unassigned) [Example 49], for which the IC50 in test [1] (setting [4]) was 3.16 to 10 nM; in test [1] (setting [7]), 6.31 nM; in test [2] (setting [5]), 100 to 316 nM; in test [2] (setting [6]) it was 316 nM. Further, the PKC-theta/PKC-delta selectivity in test [3] stood at 3. The “PKC-theta/PKC-delta selectivity (binned)” value in test [3] was “F (F means a ratio of between 1 and 5)”.

In the case of `C[C@@]1(O)C(=O)Nc2nccc(-c3nn([C@@H]4CCNC[C@@H]4F)c4ccccc34)c21` (single isomer, unassigned) [Example 50], the IC50 in test [1] (setting [4]) was not above 1 nM; in test [1] (setting [7]), 0.794 nM; in test [2] (setting [5]), 10 to 31.6 nM; in test [2] (setting [6]), 20 nM. In test [3], the PKC-theta/PKC-delta selectivity worked out at 11. The “PKC-theta/PKC-delta selectivity (binned)” value in test [3] was “D (D means a ratio of between 10 and 20)”.

Turning to `C[C@@]1(O)C(=O)Nc2nccc(-c3nn(C4(CC#N)CCC4)c4c(F)cccc34)c21` (single isomer, unassigned) [Example 58], the IC50 is not above 1 nM in test [1] (setting [4]), 0.501 nM in test [1] (setting [7]), 10 to 31.6 nM in test [2] (setting [5]) and 10 nM in test [2] (setting [6]). Further, the PKC-theta/PKC-delta selectivity in test [3] turned out to be 18. The “PKC-theta/PKC-delta selectivity (binned)” value in test [3] was “D (D means a ratio of between 10 and 20)”.

Turning to `CC[C@]1(C)C(=O)Nc2nccc(-c3nn([C@H]4CCNC[C@H]4F)c4cc(F)ccc34)c21` (single isomer, unassigned) [Example 102], in test [1] (setting [4]), the IC50 is 3.16 to 10 nM. In addition, the IC50 in test [1] (setting [7]) is 6.31 nM. Moreover, in test [3], the PKC-theta/PKC-delta selectivity was determined as 46; the “PKC-theta/PKC-delta selectivity (binned)” value is “B (B means a ratio of between 30 and 50)”.

In the case of `CC1(O)C(=O)Nc2nccc(-c3cn([C@@H]4CCNC4)c4ccccc34)c21` (stereo partly shown) [Example 17], in test [3], the PKC-theta/PKC-delta selectivity came to 7; the “PKC-theta/PKC-delta selectivity (binned)” value is “E (E means a ratio of between 5 and 10)”.
